Measured values taken from patent publication US8952024B2, “Herbicidal pyrimidone derivatives” (E I du Pont de Nemours and Company, priority 2009, dated 2015).

Key:
Format in all cases: in vivo
[1] = test system: velvetleaf (Abutilon theophrasti); assay: Test A pre-/postemergence plant response
In short: (§1)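 Both pre- and postemergence treatments are applied simultaneously, using chemicals formulated in a non-phytotoxic solvent mixture with surfactant. Postemergence plants are 2–10 cm high with one to two leaves. After approximately ten days in a greenhouse, injury is scored visually from 0 (none) to 100 (complete control) relative to untreated plants.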

[2] = test system: large crabgrass (Digitaria sanguinalis); assay: Test A pre-/postemergence plant response
In short: as §1

[3] = test system: morningglory (Ipomoea spp.); assay: Test A pre-/postemergence plant response
In short: as §1

[4] = test system: wheat (Triticum aestivum); assay: Test A pre-/postemergence plant response
In short: as §1

[5] = test system: giant foxtail (Setaria faberii); assay: Test B pre-/postemergence plant response
In short: (§2)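 Visual ratings on a 0–100 scale (100 = complete control) were made versus untreated controls 13–15 days after treatment in a greenhouse. Compounds in surfactant-containing non-phytotoxic solvent were applied preemergence to seeds in loam–sand blend or postemergence to 1- to 4-leaf plants (2–18 cm).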

[6] = test system: morningglory (Ipomoea coccinea); assay: Test B pre-/postemergence plant response
In short: as §2

[7] = test system: green foxtail (Setaria viridis); assay: Test B pre-/postemergence plant response
In short: as §2

[8] = test system: goosegrass (Eleusine indica); assay: Test B pre-/postemergence plant response
In short: as §2

[9] = test system: kochia (Kochia scoparia); assay: Test B pre-/postemergence plant response
In short: as §2

[10] = test system: cocklebur (Xanthium strumarium); assay: Test B pre-/postemergence plant response
In short: as §2

[11] = test system: downy bromegrass (Bromus tectorum); assay: Test B pre-/postemergence plant response
In short: as §2

[12] = test system: pigweed (Amaranthus retroflexus); assay: Test B pre-/postemergence plant response
In short: as §2

[13] = test system: wheat (Triticum aestivum); assay: Test B pre-/postemergence plant response
In short: as §2

[14] = Postemergence, 125 g ai/ha, visual injury, 0 to 100 scale (0 no effect, 100 complete control), approx. ten days
[15] = Postemergence, 500 g ai/ha, 0 to 100 scale, 0 = no effect, 100 = complete control, approx. ten days
[16] = Preemergence, 125 g ai/ha, 0 to 100 scale, 0 = no effect, 100 = complete control
[17] = Preemergence, 500 g ai/ha, visual injury, 0 to 100 scale (0 no effect, 100 complete control), approx. ten days
[18] = 31 g ai/ha, postemergence, scale 0 to 100, 0 is no effect, 100 is complete control
[19] = 250 g ai/ha, Preemergence, 0 to 100 scale
[20] = Postemergence, 62 g ai/ha, scale 0 (no effect) to 100 (complete control), 13 to 15 days
[21] = Postemergence, 125 g ai/ha, visual rating after 13 to 15 days, scale 0 (no effect) to 100 (complete control)
[22] = Postemergence, 250 g ai/ha, scale 0 to 100 (0 no effect, 100 complete control)
[23] = Preemergence, 31 g ai/ha, scale 0 to 100 (0 no effect, 100 complete control)
[24] = Preemergence, 62 g ai/ha, scale 0 to 100, 0 no effect, 100 complete control
[25] = Preemergence, 125 g ai/ha, scale 0 to 100, 0 no effect, 100 complete control

Cc1ccc(Cl)cc1-n1c(-c2ccccc2)ncc(C(=O)C2=C(O)CCCC2=O)c1=O [Compound 52]
25: Plant response rating, Foxtail, Giant [5, 25] | Plant response rating, Kochia [9, 20] | Plant response rating, Wheat [13, 20]
100: Velvetleaf plant response rating [1, 14] | Plant response rating, Velvetleaf [1, 15] | Plant response rating, Velvetleaf [1, 16] | Plant response rating, Velvetleaf [1, 17] | Plant response rating, Crabgrass, Large [2, 15] | Plant response rating, Crabgrass, Large [2, 17] | Morningglory plant response rating [3, 14] | Plant response rating, Morningglory [3, 15] | Plant response rating, Foxtail, Green [7, 19] | Plant response rating, Foxtail, Green [7, 22] | Plant response rating, Goosegrass [8, 19] | Plant response rating, Goosegrass [8, 24] | Plant response rating, Goosegrass [8, 25] | Plant response rating, Pigweed [12, 19] | Plant response rating, Pigweed [12, 24] | Plant response rating, Pigweed [12, 25]
5: Plant response rating, Bromegrass, Downy [11, 19] | Plant response rating, Bromegrass, Downy [11, 24] | Plant response rating, Bromegrass, Downy [11, 25]
80: Plant response rating, Foxtail, Giant [5, 18] | Plant response rating, Foxtail, Giant [5, 20] | Plant response rating, Goosegrass [8, 20]
65: Plant response rating, Kochia [9, 22]
95: Plant response rating, Foxtail, Green [7, 18] | Plant response rating, Pigweed [12, 21]
55: Plant response rating, Morningglory [6, 19] | Plant response rating, Kochia [9, 21] | Plant response rating, Bromegrass, Downy [11, 20]
60: Plant response rating, Bromegrass, Downy [11, 21]
35: Plant response rating, Wheat [13, 21] | Plant response rating, Wheat [13, 22]
15: Plant response rating, Foxtail, Giant [5, 24] | Plant response rating, Wheat [13, 18]
0: Wheat plant response rating [4, 14] | Plant response rating, Wheat [4, 16] | Plant response rating, Wheat [4, 17] | Plant response rating, Foxtail, Giant [5, 23] | Plant response rating, Morningglory [6, 23] | Plant response rating, Morningglory [6, 24] | Plant response rating, Foxtail, Green [7, 23] | Plant response rating, Cocklebur [10, 23] | Plant response rating, Cocklebur [10, 24] | Plant response rating, Bromegrass, Downy [11, 23] | Plant response rating, Wheat [13, 19] | Plant response rating, Wheat [13, 23] | Plant response rating, Wheat [13, 24] | Plant response rating, Wheat [13, 25]
40: Plant response rating, Wheat [4, 15]
85: Plant response rating, Morningglory [6, 22] | Plant response rating, Goosegrass [8, 21] | Plant response rating, Goosegrass [8, 22] | Plant response rating, Cocklebur [10, 20] | Plant response rating, Cocklebur [10, 21] | Plant response rating, Cocklebur [10, 22] | Plant response rating, Pigweed [12, 18]
30: Plant response rating, Morningglory [3, 16] | Plant response rating, Foxtail, Green [7, 24]
70: Plant response rating, Bromegrass, Downy [11, 22]
98: Plant response rating, Foxtail, Green [7, 20] | Plant response rating, Foxtail, Green [7, 21] | Plant response rating, Goosegrass [8, 23] | Plant response rating, Pigweed [12, 22]
50: Plant response rating, Bromegrass, Downy [11, 18]
45: Plant response rating, Morningglory [6, 20] | Plant response rating, Morningglory [6, 25] | Plant response rating, Foxtail, Green [7, 25]
10: Plant response rating, Morningglory [6, 18] | Plant response rating, Cocklebur [10, 25]
90: Crabgrass, Large plant response rating [2, 14] | Plant response rating, Crabgrass, Large [2, 16] | Plant response rating, Morningglory [3, 17] | Plant response rating, Foxtail, Giant [5, 21] | Plant response rating, Foxtail, Giant [5, 22] | Plant response rating, Pigweed [12, 20] | Plant response rating, Pigweed [12, 23]
75: Plant response rating, Foxtail, Giant [5, 19] | Plant response rating, Morningglory [6, 21] | Plant response rating, Goosegrass [8, 18] | Plant response rating, Cocklebur [10, 18] | Plant response rating, Cocklebur [10, 19]
20: Plant response rating, Kochia [9, 18]

Cc1cccc(-n2c(-c3ccccc3)ncc(C(=O)C3=C(O)CCCC3=O)c2=O)c1F [Compound 58]
100: Velvetleaf plant response rating [1, 14] | Plant response rating, Velvetleaf [1, 15] | Plant response rating, Velvetleaf [1, 17] | Plant response rating, Morningglory [3, 15] | Plant response rating, Morningglory [3, 17] | Plant response rating, Foxtail, Green [7, 19] | Plant response rating, Foxtail, Green [7, 22] | Plant response rating, Goosegrass [8, 19] | Plant response rating, Goosegrass [8, 25] | Plant response rating, Pigweed [12, 22] | Plant response rating, Pigweed [12, 25]
20: Plant response rating, Foxtail, Giant [5, 24]
50: Plant response rating, Bromegrass, Downy [11, 22]
70: Plant response rating, Velvetleaf [1, 16] | Plant response rating, Crabgrass, Large [2, 16] | Plant response rating, Foxtail, Green [7, 25] | Plant response rating, Goosegrass [8, 18]
85: Plant response rating, Foxtail, Giant [5, 20] | Plant response rating, Goosegrass [8, 21] | Plant response rating, Cocklebur [10, 18] | Plant response rating, Cocklebur [10, 20] | Plant response rating, Cocklebur [10, 21] | Plant response rating, Pigweed [12, 23]
25: Plant response rating, Kochia [9, 21] | Plant response rating, Kochia [9, 22]
40: Plant response rating, Bromegrass, Downy [11, 18] | Plant response rating, Bromegrass, Downy [11, 20]
90: Plant response rating, Crabgrass, Large [2, 15] | Plant response rating, Crabgrass, Large [2, 17] | Plant response rating, Foxtail, Giant [5, 21] | Plant response rating, Morningglory [6, 21] | Plant response rating, Morningglory [6, 22] | Plant response rating, Foxtail, Green [7, 20] | Plant response rating, Goosegrass [8, 22] | Plant response rating, Cocklebur [10, 22]
75: Plant response rating, Foxtail, Giant [5, 18] | Plant response rating, Foxtail, Giant [5, 19] | Plant response rating, Foxtail, Giant [5, 25] | Plant response rating, Foxtail, Green [7, 18] | Plant response rating, Goosegrass [8, 20]
65: Plant response rating, Morningglory [6, 18] | Plant response rating, Cocklebur [10, 19]
45: Plant response rating, Bromegrass, Downy [11, 21]
98: Plant response rating, Foxtail, Giant [5, 22] | Plant response rating, Foxtail, Green [7, 21] | Plant response rating, Goosegrass [8, 24] | Plant response rating, Pigweed [12, 21] | Plant response rating, Pigweed [12, 24]
5: Plant response rating, Foxtail, Green [7, 24]
10: Plant response rating, Foxtail, Giant [5, 23] | Plant response rating, Kochia [9, 20] | Plant response rating, Cocklebur [10, 25]
55: Plant response rating, Morningglory [6, 25]
95: Plant response rating, Goosegrass [8, 23] | Plant response rating, Pigweed [12, 20]
80: Crabgrass, Large plant response rating [2, 14] | Morningglory plant response rating [3, 14] | Plant response rating, Morningglory [6, 20] | Plant response rating, Pigweed [12, 18]
0: Wheat plant response rating [4, 14] | Plant response rating, Wheat [4, 15] | Plant response rating, Wheat [4, 16] | Plant response rating, Wheat [4, 17] | Plant response rating, Morningglory [6, 23] | Plant response rating, Morningglory [6, 24] | Plant response rating, Foxtail, Green [7, 23] | Plant response rating, Kochia [9, 18] | Plant response rating, Cocklebur [10, 23] | Plant response rating, Cocklebur [10, 24] | Plant response rating, Bromegrass, Downy [11, 19] | Plant response rating, Bromegrass, Downy [11, 23] | Plant response rating, Bromegrass, Downy [11, 24] | Plant response rating, Bromegrass, Downy [11, 25] | Plant response rating, Wheat [13, 18] | Plant response rating, Wheat [13, 20] | Plant response rating, Wheat [13, 21] | Plant response rating, Wheat [13, 22] | Plant response rating, Wheat [13, 23] | Plant response rating, Wheat [13, 24] | Plant response rating, Wheat [13, 25]
